Source: patent publication US11484607B2, “PSMA-targeted NIR dyes and their uses” (On Target Laboratories, LLC, priority 2015, dated 2022)

What was measured:
[1] = target: T1, PSMA on 22Rv1 cells (Homo sapiens, UniProt Q04609); experiment: OTL78 binding affinity (Kd), cell bound fluorescence by fluorometer; settings: 30 min at 4° C.
T1 construct: host or cells: 22Rv1 human prostate cancer cells
Description: (§1) For OTL78 binding affinity, 22Rv1 or PC3 cells were seeded into a T75 flask and allowed to form a monolayer over 48 h. After trypsin digestion, cells were transferred into centrifuge tubes (1×10^6 cells/tube) and centrifuged. The medium was replaced with fresh medium containing increasing concentration of OTL78 and incubated for 30 min at 4° C. After rinsing with fresh medium (2×1.0 mL) and saline (1×1.0 mL), cells were lysed with 1% SDS with in saline (1.0 mL) and cell bound fluorescence was analyzed using a fluorometer (Cary Eclipse, Agilent Technologies). The binding affinity (Kd) was calculated using a plot of percent cell bound fluorescence versus concentration using GraphPad Prism 6.

[2] = test system: PSMA-negative PC3 cells; experiment: OTL78 binding to PSMA-negative cells, cell bound fluorescence by fluorometer; design: species or system human; settings: 30 min at 4° C.
Description: as §1

[3] = test system: 22Rv1 cells; experiment: Binding and internalization of OTL78 by epifluorescence microscopy; type: cell-based, human; settings: 100 nM, 1 h
Description: (§2) Confocal Microscopy: 22Rv1, LNCaP, or PC3 cells (50,000 cells/well in 1 mL) were seeded into poly-D-lysine microwell Petri dishes and allowed cells to form monolayers over 12 h. Spent medium was replaced with fresh medium containing OTL78 (100 nM) and cells were incubated for 1 h at 37° C. or 4° C. After rinsing with fresh medium (2×1.0 mL) and saline (lx 1.0 mL), fluorescence images were acquired using an epi-microscopy.

[4] = test system: LNCaP cells; experiment: as above; type: cell-based, human; settings: 100 nM, 1 h
Description: as §2

[5] = test system: PC3 cells; experiment: as above; type: cell-based, human; settings: 100 nM, 1 h
Description: as §2

[6] = test system: PC3 tumor xenografts; experiment: OTL78 whole body imaging and tissue biodistribution, subcutaneous tumor; type: in vivo, mice; settings: 10 nmol, 2 h
Description: (§3) Whole body Imaging & Tissue biodistribution: Seven-week-old male nu/nu mice were inoculated subcutaneously with 5.0×106 22Rv1, LNCaP, PC3 or A549 cells/mouse in 50% high concentrated matrigel with RPMI1640 medium on the shoulder. Growth of the tumors was measured in perpendicular directions every 2 days using a caliper (body weights were monitored on the same schedule), and the volumes of the tumors were calculated as 0.5×L×W2 (L=longest axis and W=axis perpendicular to L in millimeters). Once tumors reached approximately 300-400 mm3 in volume, animals (3-5 mice/group) were intravenously injected with appropriate dose of OTL78 in saline.
(§4) For whole body imaging and biodistribution studies, animals were euthanized after 2 h of administration of OTL78 by CO2 asphyxiation. For time dependent studies, animals were imaged under anesthesia using isoflurane. Imaging experiments were then performed using IVIS or AMI image systems. Following whole body imaging, animals were dissected and selected tissues were analyzed for fluorescence activity using IVIS or AMI image system and ROI of the tissues were calculated using Living Image 4.0 software or AMIView Image Analysis Software.

[7] = test system: A549 tumor xenografts; experiment: as above; type: in vivo, mice; settings: 10 nmol, 2 h
Description: as §3, §4

[8] = Safety study of OTL78 (body weight, histopathology, clinical pathology)
Description: Safety Study: Seven-week-old healthy male Balb/c (5 mice/group) were administered with 6 μmol of freshly prepared OTL78 or saline dissolved in 100 μL of saline via tail vein injection on day zero. Body weights and clinical observations were monitored prior to dosing and daily thereafter from day zero to 14.
For immunohistopathology (IHC) studies, the animals were euthanized by CO2 asphyxiation on the day 14 and selected tissues (brain, heart, lung, liver, spleen, kidney, stomach, small intestine, large intestine, muscle, and skin) were collected into vials containing 4% formalin. Formalin fixed tissues were sectioned into 10 μm thick sections and mounted onto Superfrost Plus™ slides (Fisher Scientific, Pittsburgh Pa.). After staining the slides with H&E, IHC analysis of the tissues was conducted to determine to the toxicity of OTL78.
For clinical pathology studies, the animals were euthanized by CO2 asphyxiation on the day 14 and blood was collected to heparin by cardiac punch and blood work analysis was conducted at Purdue clinical pathology lab.

T1 sequence (Q04609 whole entry): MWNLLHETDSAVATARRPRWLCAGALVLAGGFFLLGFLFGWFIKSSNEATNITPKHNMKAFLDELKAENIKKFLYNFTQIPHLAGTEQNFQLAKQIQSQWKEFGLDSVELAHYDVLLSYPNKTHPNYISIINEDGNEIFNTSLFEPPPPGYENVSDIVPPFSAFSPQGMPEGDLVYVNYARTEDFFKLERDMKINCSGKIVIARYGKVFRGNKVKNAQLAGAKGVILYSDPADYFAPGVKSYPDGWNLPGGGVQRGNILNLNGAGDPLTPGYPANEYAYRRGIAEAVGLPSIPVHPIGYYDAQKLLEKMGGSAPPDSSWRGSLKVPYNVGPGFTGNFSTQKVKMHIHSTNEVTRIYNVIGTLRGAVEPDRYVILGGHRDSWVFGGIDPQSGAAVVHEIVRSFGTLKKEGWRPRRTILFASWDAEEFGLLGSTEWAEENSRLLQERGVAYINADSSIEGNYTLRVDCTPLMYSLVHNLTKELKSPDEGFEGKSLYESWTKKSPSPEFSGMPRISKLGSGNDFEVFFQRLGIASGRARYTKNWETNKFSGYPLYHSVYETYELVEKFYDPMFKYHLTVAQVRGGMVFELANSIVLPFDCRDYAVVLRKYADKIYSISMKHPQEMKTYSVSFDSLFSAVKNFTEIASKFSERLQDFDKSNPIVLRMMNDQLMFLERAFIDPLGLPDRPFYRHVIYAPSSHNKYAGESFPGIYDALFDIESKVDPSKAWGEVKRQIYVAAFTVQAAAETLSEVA

CC1(C)C(/C=C/C2=C(Oc3ccc(C[C@H](NC(=O)[C@H](Cc4ccccc4)NC(=O)CCOCCOCCNC(=O)CC[C@H](NC(=O)N[C@@H](CCC(=O)O)C(=O)O)C(=O)O)C(=O)O)cc3)C(=C/C=C3/N(CCCCS(=O)(=O)O)c4ccc(S(=O)(=O)O)cc4C3(C)C)/CCC2)=[N+](CCCCS(=O)(=O)[O-])c2ccc(S(=O)(=O)O)cc21 [OTL78]
Kd [1]: 4.7 nM
binding to PSMA-negative PC3 cells [2]: did not bind
labelling of 22Rv1 cells [3]: able to efficiently label
labelling of LNCaP cells [4]: able to efficiently label
labelling of PC3 cells [5]: not PC3 cells
fluorescence intensity of PC3 tumors compared to 22Rv1 tumors [6]: ~6 folds less
fluorescence intensity of A549 tumors compared to 22Rv1 tumors [7]: ~6 folds less
body weight change over the course of the study ([8]; 6 μmol/mouse (600× of normal dose), day zero to 14): < 5 % increase
clinical pathology analysis on blood samples ([8]; 6 μmol/mouse, day 14): No noticeable toxicities
pathological changes in H&E staining of tissues ([8]; 6 μmol/mouse, day 14): no obvious pathological changers
